Assay results taken from the supplement of paper PMC10307832.

Experiments:
Assay in all cases: relative viability (nuclei count vs DMSO), 5 days (fraction); higher = more cells survive
Cediranib + Vorinostat = compound: COc1cc2c(Oc3ccc4[nH]c(C)cc4c3F)ncnc2cc1OCCCN1CCCC1 [Cediranib] + O=C(CCCCCCC(=O)Nc1ccccc1)NO [Vorinostat] (partner 1 µM)
Outline: (§1)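 Lung cancer cell lines were pin-tool dosed in 1536-well plates on the day after seeding, with either a lone drug or a fixed anchor-drug dose plus five library-drug doses (not always all listed) in √10 steps. Nuclei were counted on 4× images after 5 days. Relative viability is the ratio of treated-well to vehicle-well nuclei counts, with each value a median of duplicate plates.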

Cediranib + Linsitinib = compound: COc1cc2c(Oc3ccc4[nH]c(C)cc4c3F)ncnc2cc1OCCCN1CCCC1 [Cediranib] + C[C@]1(O)C[C@@H](c2nc(-c3ccc4ccc(-c5ccccc5)nc4c3)c3c(N)nccn32)C1 [Linsitinib] (partner 1 µM)
Outline: as §1

[1] = compound: O=C(C[C@H]1NCCC[C@@H]1O)Cn1cnc2cc(Br)c(Cl)cc2c1=O (racemic) [Halofuginone] + CCNC(=O)c1noc(-c2cc(C(C)C)c(O)cc2O)c1-c1ccc(CN2CCOCC2)cc1 [Luminespib] (partner 0.01 µM)
Outline: as §1

Cediranib + Tozasertib = compound: COc1cc2c(Oc3ccc4[nH]c(C)cc4c3F)ncnc2cc1OCCCN1CCCC1 [Cediranib] + Cc1cc(Nc2cc(N3CCN(C)CC3)nc(Sc3ccc(NC(=O)C4CC4)cc3)n2)n[nH]1 [Tozasertib] (partner 0.1 µM)
Outline: as §1

HOP-62
relative viability (Cediranib + Vorinostat; first compound 0.04 µM): 0.633
relative viability (Cediranib + Vorinostat; first compound 0.1265 µM): 0.418
relative viability (Cediranib + Vorinostat; first compound 0.4 µM): 0.575
relative viability (Cediranib + Vorinostat; first compound 1.265 µM): 0.468
relative viability (Cediranib + Vorinostat; first compound 4 µM): 0.896
relative viability (Cediranib + Linsitinib; first compound 0.04 µM): 1.11
relative viability (Cediranib + Linsitinib; first compound 0.4 µM): 1.04
relative viability (Cediranib + Linsitinib; first compound 1.265 µM): 0.853
relative viability (Cediranib + Linsitinib; first compound 4 µM): 1.18
relative viability ([1]; first compound 0.001 µM): 0.817
relative viability ([1]; first compound 0.003162 µM): 0.96
relative viability ([1]; first compound 0.01 µM): 0.902
relative viability ([1]; first compound 0.03162 µM): 0.921
relative viability ([1]; first compound 0.1 µM): 0.818
relative viability (Cediranib + Tozasertib; first compound 0.04 µM): 0.366
relative viability (Cediranib + Tozasertib; first compound 0.1265 µM): 0.457
relative viability (Cediranib + Tozasertib; first compound 0.4 µM): 0.388
relative viability (Cediranib + Tozasertib; first compound 1.265 µM): 0.379
relative viability (Cediranib + Tozasertib; first compound 4 µM): 0.352

CAL-12T
relative viability (Cediranib + Vorinostat; first compound 0.04 µM): 0.942
relative viability (Cediranib + Vorinostat; first compound 0.1265 µM): 0.808
relative viability (Cediranib + Vorinostat; first compound 0.4 µM): 0.772
relative viability (Cediranib + Vorinostat; first compound 1.265 µM): 0.701
relative viability (Cediranib + Vorinostat; first compound 4 µM): 1.05
relative viability (Cediranib + Linsitinib; first compound 0.04 µM): 0.95
relative viability (Cediranib + Linsitinib; first compound 0.1265 µM): 0.864
relative viability (Cediranib + Linsitinib; first compound 0.4 µM): 0.691
relative viability (Cediranib + Linsitinib; first compound 1.265 µM): 0.865
relative viability (Cediranib + Linsitinib; first compound 4 µM): 0.714
relative viability ([1]; first compound 0.001 µM): 0.73
relative viability ([1]; first compound 0.003162 µM): 0.548
relative viability ([1]; first compound 0.01 µM): 0.489
relative viability ([1]; first compound 0.03162 µM): 0.423
relative viability ([1]; first compound 0.1 µM): 0.14
relative viability (Cediranib + Tozasertib; first compound 0.04 µM): 0.333
relative viability (Cediranib + Tozasertib; first compound 0.1265 µM): 0.333
relative viability (Cediranib + Tozasertib; first compound 0.4 µM): 0.29
relative viability (Cediranib + Tozasertib; first compound 1.265 µM): 0.397
relative viability (Cediranib + Tozasertib; first compound 4 µM): 0.293

LCLC-103H
relative viability (Cediranib + Vorinostat; first compound 0.04 µM): 0.824
relative viability (Cediranib + Vorinostat; first compound 0.1265 µM): 0.572
relative viability (Cediranib + Vorinostat; first compound 0.4 µM): 0.767
relative viability (Cediranib + Vorinostat; first compound 1.265 µM): 0.78
relative viability (Cediranib + Vorinostat; first compound 4 µM): 0.898
relative viability (Cediranib + Linsitinib; first compound 0.04 µM): 1.19
relative viability (Cediranib + Linsitinib; first compound 0.1265 µM): 1.12
relative viability (Cediranib + Linsitinib; first compound 0.4 µM): 1.04
relative viability (Cediranib + Linsitinib; first compound 1.265 µM): 1.02
relative viability (Cediranib + Linsitinib; first compound 4 µM): 1.18
relative viability ([1]; first compound 0.001 µM): 0.948
relative viability ([1]; first compound 0.003162 µM): 1.1
relative viability ([1]; first compound 0.01 µM): 0.968
relative viability ([1]; first compound 0.03162 µM): 0.989
relative viability ([1]; first compound 0.1 µM): 0.805
relative viability (Cediranib + Tozasertib; first compound 0.04 µM): 0.501
relative viability (Cediranib + Tozasertib; first compound 0.1265 µM): 0.505
relative viability (Cediranib + Tozasertib; first compound 0.4 µM): 0.467
relative viability (Cediranib + Tozasertib; first compound 1.265 µM): 0.469
relative viability (Cediranib + Tozasertib; first compound 4 µM): 0.5

NCI-H3122
relative viability (Cediranib + Vorinostat; first compound 0.04 µM): 1.02
relative viability (Cediranib + Vorinostat; first compound 0.4 µM): 0.985
relative viability (Cediranib + Vorinostat; first compound 1.265 µM): 1.13
relative viability (Cediranib + Vorinostat; first compound 4 µM): 1.07
relative viability (Cediranib + Linsitinib; first compound 0.04 µM): 1.01
relative viability (Cediranib + Linsitinib; first compound 0.1265 µM): 1.07
relative viability (Cediranib + Linsitinib; first compound 0.4 µM): 0.986
relative viability (Cediranib + Linsitinib; first compound 1.265 µM): 1.02
relative viability (Cediranib + Linsitinib; first compound 4 µM): 1.03
relative viability ([1]; first compound 0.001 µM): 0.0978
relative viability ([1]; first compound 0.003162 µM): 0.0825
relative viability ([1]; first compound 0.01 µM): 0.0899
relative viability ([1]; first compound 0.03162 µM): 0.0925
relative viability ([1]; first compound 0.1 µM): 0.148
relative viability (Cediranib + Tozasertib; first compound 0.04 µM): 0.393
relative viability (Cediranib + Tozasertib; first compound 0.4 µM): 0.364
relative viability (Cediranib + Tozasertib; first compound 1.265 µM): 0.53
relative viability (Cediranib + Tozasertib; first compound 4 µM): 0.468

NCI-H1395
relative viability (Cediranib + Vorinostat; first compound 0.04 µM): 0.686
relative viability (Cediranib + Vorinostat; first compound 0.1265 µM): 0.689
relative viability (Cediranib + Vorinostat; first compound 0.4 µM): 0.601
relative viability (Cediranib + Vorinostat; first compound 1.265 µM): 0.645
relative viability (Cediranib + Vorinostat; first compound 4 µM): 0.711
relative viability (Cediranib + Linsitinib; first compound 0.04 µM): 0.937
relative viability (Cediranib + Linsitinib; first compound 0.4 µM): 1.11
relative viability (Cediranib + Linsitinib; first compound 1.265 µM): 1.16
relative viability (Cediranib + Linsitinib; first compound 4 µM): 0.936
relative viability ([1]; first compound 0.001 µM): 0.826
relative viability ([1]; first compound 0.003162 µM): 0.655
relative viability ([1]; first compound 0.01 µM): 0.626
relative viability ([1]; first compound 0.03162 µM): 0.656
relative viability ([1]; first compound 0.1 µM): 0.642
relative viability (Cediranib + Tozasertib; first compound 0.04 µM): 0.739
relative viability (Cediranib + Tozasertib; first compound 0.1265 µM): 0.773
relative viability (Cediranib + Tozasertib; first compound 0.4 µM): 0.666
relative viability (Cediranib + Tozasertib; first compound 1.265 µM): 0.74
relative viability (Cediranib + Tozasertib; first compound 4 µM): 0.791

PC-14
relative viability (Cediranib + Vorinostat; first compound 0.04 µM): 0.831
relative viability (Cediranib + Vorinostat; first compound 0.1265 µM): 0.755
relative viability (Cediranib + Vorinostat; first compound 0.4 µM): 0.744
relative viability (Cediranib + Vorinostat; first compound 1.265 µM): 0.801
relative viability (Cediranib + Vorinostat; first compound 4 µM): 0.451
relative viability (Cediranib + Linsitinib; first compound 0.04 µM): 0.935
relative viability (Cediranib + Linsitinib; first compound 0.1265 µM): 0.986
relative viability (Cediranib + Linsitinib; first compound 0.4 µM): 0.905
relative viability (Cediranib + Linsitinib; first compound 1.265 µM): 0.897
relative viability (Cediranib + Linsitinib; first compound 4 µM): 0.965
relative viability ([1]; first compound 0.001 µM): 0.152
relative viability ([1]; first compound 0.003162 µM): 0.161
relative viability ([1]; first compound 0.01 µM): 0.183
relative viability ([1]; first compound 0.03162 µM): 0.184
relative viability ([1]; first compound 0.1 µM): 0.104
relative viability (Cediranib + Tozasertib; first compound 0.04 µM): 0.711
relative viability (Cediranib + Tozasertib; first compound 0.1265 µM): 0.651
relative viability (Cediranib + Tozasertib; first compound 0.4 µM): 0.585
relative viability (Cediranib + Tozasertib; first compound 1.265 µM): 0.61
relative viability (Cediranib + Tozasertib; first compound 4 µM): 0.483

BEN
relative viability (Cediranib + Vorinostat; first compound 0.04 µM): 0.669
relative viability (Cediranib + Vorinostat; first compound 0.1265 µM): 0.445
relative viability (Cediranib + Vorinostat; first compound 0.4 µM): 0.592
relative viability (Cediranib + Vorinostat; first compound 1.265 µM): 0.552
relative viability (Cediranib + Vorinostat; first compound 4 µM): 0.588
relative viability (Cediranib + Linsitinib; first compound 0.04 µM): 1.16
relative viability (Cediranib + Linsitinib; first compound 0.1265 µM): 0.799
relative viability (Cediranib + Linsitinib; first compound 0.4 µM): 0.82
relative viability (Cediranib + Linsitinib; first compound 1.265 µM): 0.9
relative viability (Cediranib + Linsitinib; first compound 4 µM): 0.647
relative viability ([1]; first compound 0.001 µM): 0.203
relative viability ([1]; first compound 0.003162 µM): 0.348
relative viability ([1]; first compound 0.01 µM): 0.45
relative viability ([1]; first compound 0.03162 µM): 0.322
relative viability ([1]; first compound 0.1 µM): 0.14
relative viability (Cediranib + Tozasertib; first compound 0.04 µM): 0.446
relative viability (Cediranib + Tozasertib; first compound 0.4 µM): 0.554
relative viability (Cediranib + Tozasertib; first compound 4 µM): 0.627

EPLC-272H
relative viability (Cediranib + Vorinostat; first compound 0.04 µM): 0.38
relative viability (Cediranib + Vorinostat; first compound 0.1265 µM): 0.448
relative viability (Cediranib + Vorinostat; first compound 0.4 µM): 0.401
relative viability (Cediranib + Vorinostat; first compound 1.265 µM): 0.527
relative viability (Cediranib + Vorinostat; first compound 4 µM): 0.383
relative viability (Cediranib + Linsitinib; first compound 0.04 µM): 1.17
relative viability (Cediranib + Linsitinib; first compound 0.4 µM): 1.16
relative viability (Cediranib + Linsitinib; first compound 1.265 µM): 1.18
relative viability (Cediranib + Linsitinib; first compound 4 µM): 1.29
relative viability ([1]; first compound 0.001 µM): 0.329
relative viability ([1]; first compound 0.003162 µM): 0.169
relative viability ([1]; first compound 0.01 µM): 0.409
relative viability ([1]; first compound 0.03162 µM): 0.479
relative viability ([1]; first compound 0.1 µM): 0.206
relative viability (Cediranib + Tozasertib; first compound 0.04 µM): 0.267
relative viability (Cediranib + Tozasertib; first compound 0.4 µM): 0.31
relative viability (Cediranib + Tozasertib; first compound 4 µM): 0.297
